Assay: solvent given as SMILES

CCNc1nc(NC(C)(C)C)nc(OC)n1
Details	solvation free energy, 298 K [kcal/mol]
in O	-9

CCC(C)OC(C)CC (stereo unspecified)
Details	solvation free energy, 298 K [kcal/mol]
in O	-0.8

CNc1nc(NC(C)C)nc(SC)n1
Details	solvation free energy, 298 K [kcal/mol]
in O	-10.5

CC(=O)C(C)=O
Details	solvation free energy, 298 K [kcal/mol]
in O	-4.3

CC1CO1 (stereo unspecified)
Details	solvation free energy, 298 K [kcal/mol]
in CC=O	-3.7

CCOC(C)=O
Details	solvation free energy, 298 K [kcal/mol]
in Brc1cccc2ccccc12	-3.95
in C1CCOC1	-4.56
in C1COCCO1	-4.49
in C=CCCCCCCCCCCCCCC	-3.23
in CC(=O)N(C)C	-4.23
in CC(=O)OCc1ccccc1	-4.29
in CC(C)CC(C)(C)C	-3.53
in CC(C)CCCC(C)CCCC(C)CCCCC(C)CCCC(C)CCCC(C)C	-3.2
in CC(C)O	-3.9
in CCC(C)=O	-4.49
in CCCC=O	-4.49
in CCCCC(CC)COC(=O)CCCCC(=O)OCC(CC)CCCC	-3.73
in CCCCCC	-3.61
in CCCCCC=CCC=CCCCCCCCC(=O)O	-3.67
in CCCCCCC	-3.53
in CCCCCCCC	-3.4
in CCCCCCCCC=CCCCCCCCC(=O)OCC(COC(=O)CCCCCCCC=CCCCCCCCC)OC(=O)CCCCCCCC=CCCCCCCCC	-3.72
in CCCCCCCCCC	-3.28
in CCCCCCCCCCCCCC	-3.24
in CCCCCCCCCCCCCCCC	-3.23
in CCCCCCCCO	-3.69
in CCCCCO	-3.87
in CCCCCl	-4.32
in CCCCN(C=O)CCCC	-3.96
in CCCCO	-3.97
in CCO	-4.06
in CCOC(=O)c1ccccc1C(=O)OCC	-3.94
in CCOCCO	-4.14
in CCOP(=O)(OCC)OCC	-4.13
in CN1CCCC1=O	-4.16
in CN1CCCCC1=O	-4.16
in CN1CCN(C)C1=O	-3.98
in CN(C)C=O	-4.32
in CNC(C)=O	-4.04
in CO	-4.38
in COP(=O)(OC)OC	-4.28
in CS(C)=O	-3.88
in Cc1ccc(C)cc1	-4.21
in Cc1cccc(C)c1	-4.15
in ClCCCl	-4.71
in ClCCl	-5.22
in Clc1ccccc1	-4.43
in NC=O	-3.61
in O	-2.95
in O=C1CCCCC1	-4.33
in O=CN1CCOCC1	-3.89
in OCCOCCO	-3.53
in [2H]O[2H]	-3.02
in c1ccc2ncccc2c1	-4.07

CCC(=O)OC
Details	solvation free energy, 298 K [kcal/mol]
in C1CCOC1	-4.45
in CCCCCC	-3.65
in CCCCCCC	-3.63
in CCCCCCCC	-3.57
in CCCCCCCCCC	-3.49
in CCCO	-3.89
in CCO	-4.15
in CO	-4.32
in O	-2.93

COc1cc(C)ccc1O
Details	solvation free energy, 298 K [kcal/mol]
in O	-5.8

CCCCCC(=O)O
Details	solvation free energy, 298 K [kcal/mol]
in O	-6.11

FCF
Details	solvation free energy, 298 K [kcal/mol]
in CCCCCCCCC	-0.37
in CCCCCCCCO	-0.57
in CN1CCCC1=O	-1.69
in CN(C)C=O	-1.69
in O	-0.33

FC(F)(F)c1ccccc1
Details	solvation free energy, 298 K [kcal/mol]
in O	-0.25

CCCCCCCCCCCCCCCC(=O)OCC
Details	solvation free energy, 298 K [kcal/mol]
in O	-7.23

O=C(O)c1ccc(Cl)c([N+](=O)[O-])c1
Details	solvation free energy, 298 K [kcal/mol]
in C1CCOC1	-14.2
in C1COCCO1	-14.2
in CC(C)(C)O	-13.3
in CC(C)CCO	-13.1
in CC(C)CO	-12.9
in CC(C)O	-13.4
in CCC(C)O	-13.2
in CCCC(=O)OC	-13
in CCCC(C)O	-13.2
in CCCCCCCCCCO	-12.9
in CCCCCCCCO	-13.1
in CCCCCCCO	-13.1
in CCCCCCO	-13.1
in CCCCCO	-13.2
in CCCCO	-13.2
in CCCCOC(C)=O	-13.1
in CCCO	-13.3
in CCCOC(C)=O	-12.8
in CCO	-13.5
in CCOC(C)=O	-13.3
in CCOCC	-13.1
in CN(C)C=O	-14.1
in COC(C)=O	-13.4
in O	-9.84

— the CombiSolv-Exp solvation set (Vermeire and Green 2021)
